Results: ChEMBL document CHEMBL4184162, “Hybrid DNA i-motif: Aminoethylprolyl-PNA (pC5) enhance the stability of DNA (dC5) i-motif structure” (Bioorg Med Chem Lett, 2017)
Active and inactive are the calls of the source. The rule behind the calls is not given here.

How the values were obtained:
[1] = Stabilization of i-motif DNA (unknown origin) assessed as change in melting temperature at 22.5 uM at pH 4.5 in presence of DC5 by UV-based analysis
[2] = Stabilization of i-motif DNA (unknown origin) assessed as change in melting temperature at 22.5 uM at pH 6 in presence of DC5 by UV-based analysis
[3] = Stabilization of i-motif DNA (unknown origin) assessed as change in melting temperature at 22.5 uM at pH 5.5 in presence of DC5 by UV-based analysis
[4] = Stabilization of i-motif DNA (unknown origin) at 22.5 uM at pH 4 to 6 by CD-spectra analysis
[5] = Stabilization of i-motif DNA (unknown origin) assessed as change in melting temperature at 22.5 uM at pH 5 in presence of DC5 by UV-based analysis

ΔTm [1]: 15.3 °C
ΔTm [2]: 13.2 °C
ΔTm [3]: 8.85 °C
Activity [4]: Active
ΔTm [5]: 17.9 °C
SMILES: CC(=O)NCCN1C[C@@H](n2ccc(N)nc2=O)C[C@H]1C(=O)NCCN1C[C@@H](n2ccc(N)nc2=O)C[C@H]1C(=O)NCCN1C[C@@H](n2ccc(N)nc2=O)C[C@H]1C(=O)NCCN1C[C@@H](n2ccc(N)nc2=O)C[C@H]1C(=O)NCCN1C[C@@H](n2ccc(N)nc2=O)C[C@H]1C(=O)NCCC(N)=O
